Source: patent US11510924B2, “Deuterated pharmaceutical compositions and methods of treating cardiovascular diseases” (priority 2017, dated 2022)

Columns and labels:
volunteer subjects = test: Heart rate effect of API combinations in volunteer subjects (Examples 1-3); conditions: added API in combination with aminophylline and clenbuterol; small group of volunteer subjects
Procedure: To test this hypothesis, an experiment was conducted, where a combination of aminophylline and clenbuterol was administered to a small group of volunteer subjects. […] For each subject in this example, an electrocardiogram (ECG) was used to monitor heart rate and A-V conduction abnormalities.
To further improve the effect of the aminophylline and clenbuterol combination on the heart rate, various combinations with active pharmaceutical ingredients were investigated. Without being bound by theory, the hypothesis in this experiment was to utilize a combination of APIs with similar mechanism of action or with the same side effect (a secondary therapeutical effects) on heart as aminophylline and clenbuterol. Oryzanol, nicotinamide, or anisodamine in combination with aminophylline and clenbuterol was tested on a small group of volunteer subjects.
Nifedipine (a calcium channel blocker) was then selected and tested.
A combination of betahistine with aminophylline, clenbuterol, and nifedipine was then prepared and tested on a small group of healthy volunteer subjects.

patient = test: Clinical observation of heart rate in patients treated for other indications; conditions: vertigo patient, after administering betahistine
bradycardia patients = test: API combinations tested on bradycardia patients (Examples 1-3); assay type: in vivo, human; conditions: observed on some patients
Procedure: During the testing of the 4-API combination on bradycardia patients, a few adverse side effects were observed on some patients. […] Therefore, a further study was conducted to determine how to avoid or reduce such side effects. […] To confirm this finding, clenbuterol was replaced by albuterol in the 4-API combination, which has a similar secondary therapeutic effect on heart rate. […] Daily electrocardiograms were used to monitor the bradycardia patients. […] With this improvement, the effectiveness of the treatment on bradycardia patients was retained while the undesired side effects were minimized or eliminated.

Molecule	effect on heart rate compared with aminophylline and clenbuterol combination (Example 1) (volunteer subjects)	further results
CN1[C@H]2C[C@H](OC(=O)[C@H](CO)c3ccccc3)C[C@@H]1[C@@H](O)C2 [anisodamine]	no further improvement	
CNCCc1ccccn1 [betahistine]		effect on heart rate (patient): noticeably increased
CC(C)(C)NCC(O)c1cc(Cl)c(N)c(Cl)c1 (centres unmarked) [clenbuterol]		adverse side effects (bradycardia patients): these side effects were related to clenbuterol
NC(=O)c1cccnc1 [nicotinamide]	no further improvement	
Oryzanol	no further improvement	
